Here are results for eight compounds from ChEMBL document CHEMBL1154344, “New quaternary ammonium oxicam derivatives: synthesis and in vitro antiosteoarthritis evaluation” (2010).

For assay [1], the species on record is Bos taurus. Nature of the assay: (§1) Antiosteoarthritis activity in bovine articular chondrocytes assessed as inhibition of IL1-induced reduction of aggrecan mRNA expression at 10 uM after 5 days by Northern blot analysis relative to control. In kind it is functional.
For assay [2], the species on record is Bos taurus. Nature of the assay: (§2) Antiosteoarthritis activity in bovine articular chondrocytes assessed as induction of aggrecan mRNA expression at 1 uM after 5 days by Northern blot analysis relative to control. In kind it is functional.
The species named for assay [3] is Bos taurus. Nature of the assay: (§3) Antiosteoarthritis activity in bovine articular chondrocytes assessed as induction of aggrecan mRNA expression at 10 uM after 5 days by Northern blot analysis relative to control. In kind it is functional.
Assay [4] is filed under the species Bos taurus. Nature of the assay: (§4) Antiosteoarthritis activity in bovine articular chondrocytes assessed as inhibition of IL1-induced reduction of aggrecan mRNA expression at 1 uM after 5 days by Northern blot analysis relative to control. In kind it is functional.
Assay [5] is filed under the species Bos taurus. Nature of the assay: (§5) Antiosteoarthritis activity in bovine articular chondrocytes assessed as induction of aggrecan mRNA expression at 0.1 uM after 5 days by Northern blot analysis relative to control. Format: functional.
The species named for assay [6] is Bos taurus. Nature of the assay: (§6) Antiosteoarthritis activity in bovine articular chondrocytes assessed as inhibition of IL1-induced reduction of aggrecan mRNA expression at 0.1 uM after 5 days by Northern blot analysis relative to control. Format: functional.
Assay [7] is described as follows: as §1. Format: functional, Bos taurus. Details: scale not given: the % may be the effect or the level left.
The species entered for assay [8] is Bos taurus. Nature of the assay: Induction of TGF receptor type 1 mRNA expression in bovine articular chondrocytes at 1 uM after 5 days by RT-PCR analysis in presence of IL-1. In kind it is functional, cell-based.
Assay [9] in a line: as §2. Format: functional, Bos taurus.
The species entered for assay [10] is Bos taurus. Nature of the assay: Induction of TGF receptor type 1 mRNA expression in bovine articular chondrocytes at 1 uM after 5 days by RT-PCR analysis. Format: functional, cell-based.
For assay [11], the species on record is Bos taurus. Nature of the assay: Induction of TGF-beta1 mRNA expression in bovine articular chondrocytes at 10 uM after 5 days by RT-PCR analysis. Format: functional, cell-based.
Assay [12] is filed under the species Bos taurus. Nature of the assay: Induction of TGF-beta1 mRNA expression in bovine articular chondrocytes at 1 uM after 5 days by RT-PCR analysis in presence of IL-1. In kind it is functional, cell-based.
Assay [13] can be described thus: Induction of TGF-beta2 mRNA expression in bovine articular chondrocytes at 10 uM after 5 days by RT-PCR analysis relative to control. In kind it is functional, Bos taurus.
Assay [14] can be described thus: as §5. In kind it is functional, Bos taurus.
The species entered for assay [15] is Bos taurus. Nature of the assay: Induction of TGF receptor type 1 mRNA expression in bovine articular chondrocytes at 10 uM after 5 days by RT-PCR analysis. Format: functional, cell-based.
Assay [16] can be described thus: Induction of TGF-beta2 mRNA expression in bovine articular chondrocytes at 1 uM after 5 days by RT-PCR analysis relative to control. Format: functional, Bos taurus.
For assay [17], the species on record is Bos taurus. Nature of the assay: Induction of TGF-beta1 mRNA expression in bovine articular chondrocytes at 1 uM after 5 days by RT-PCR analysis. Format: functional, cell-based.
The species entered for assay [18] is Bos taurus. Nature of the assay: Induction of TGF receptor type 1 mRNA expression in bovine articular chondrocytes at 10 uM after 5 days by RT-PCR analysis in presence of IL-1. Format: functional, cell-based.
Assay [19] is filed under the species Bos taurus. Nature of the assay: Induction of TGF-beta1 mRNA expression in bovine articular chondrocytes at 10 uM after 5 days by RT-PCR analysis in presence of IL-1. In kind it is functional, cell-based.
Assay [20] in a line: as §3. In kind it is functional. Conditions: Bos taurus, 120 h; values are per cent of control.
The nature of assay [21]: (§7) Antiosteoarthritis activity in bovine articular chondrocytes assessed as induction of aggrecan mRNA expression at 10 uM after 5 days by RT-PCR analysis relative to control. In kind it is functional, Bos taurus.
Assay [22] can be described thus: Antiosteoarthritis activity in bovine articular chondrocytes assessed as inhibition of IL1-induced reduction of aggrecan mRNA expression at 1 uM after 5 days by RT-PCR analysis relative to control. As to conditions: Bos taurus, 120 h. In kind it is functional.
Assay [23] can be described thus: as §4. In kind it is functional, Bos taurus. Details: scale not given: the % may be the effect or the level left.
The species entered for assay [24] is Bos taurus. Nature of the assay: Antiosteoarthritis activity in bovine articular chondrocytes assessed as restoration of IL-1-inuced inhibition of proteoglycans biosynthesis at 0.1 to 10 uM. In kind it is functional, cell-based.
The nature of assay [25]: as §6. Format: functional, Bos taurus. More on the design: scale not given: the % may be the effect or the level left.
A short description of assay [26]: Antiosteoarthritis activity in bovine articular chondrocytes assessed as inhibition of IL1-induced reduction of aggrecan mRNA expression at 0.1 uM after 5 days by RT-PCR analysis relative to control. Format: functional. As to conditions: Bos taurus, 120 h.
For assay [27], the species on record is Bos taurus. The assay is described as §7. Format: functional.
Assay [28] is described as follows: Induction of TGF receptor type 2 mRNA expression in bovine articular chondrocytes at 1 uM after 5 days by RT-PCR analysis relative to control. Format: functional, Bos taurus.
Assay [29] is described as follows: Induction of TGF receptor type 2 mRNA expression in bovine articular chondrocytes at 10 uM after 5 days by RT-PCR analysis relative to control. In kind it is functional, Bos taurus.

Active and inactive are the calls of the source. No cut-off for these calls is given here.

Regarding `CN1C(C(=O)NCCCC[N+](C)(C)C)=C(O)c2ccccc2S1(=O)=O`, the result in the assay listed under Bos taurus [1], in the assay filed under Bos taurus [2], in the assay filed under Bos taurus [3], in the assay listed under Bos taurus [4], in the assay filed under Bos taurus [5] and in the assay filed under Bos taurus [6] was inactive.

In the case of `CN(C)CCCNC(=O)C1=C(O)c2ccccc2S(=O)(=O)N1C` [PROPOXICAM], the Activity in assay [7] turned out to be 65%; in assay [9] it was 25%; in [13], 22%; in [14], 25%; in [16], 31%. Also, the result in the assay listed under Bos taurus [1], in the assay filed under Bos taurus [4] and in the assay filed under Bos taurus [6] was Active. Also, the outcome in the assay listed under Bos taurus [8], in the assay listed under Bos taurus [10], in the assay filed under Bos taurus [11], in the assay filed under Bos taurus [12], in the assay listed under Bos taurus [15] and in the assay listed under Bos taurus [17] was inactive. Besides, the outcome in the assay filed under Bos taurus [18] and in the assay listed under Bos taurus [19] was inactive.

Regarding `CC[N+](CC)(CC)CCCNC(=O)C1=C(O)c2ccccc2S(=O)(=O)N1C`, the outcome in the assay listed under Bos taurus [1], in the assay filed under Bos taurus [2], in the assay listed under Bos taurus [3], in the assay filed under Bos taurus [4], in the assay filed under Bos taurus [5] and in the assay filed under Bos taurus [6] was inactive.

On to `CN1C(C(=O)NCCC[n+]2ccccc2)=C(O)c2ccccc2S1(=O)=O`, for which the outcome in the assay listed under Bos taurus [1], in the assay filed under Bos taurus [2], in the assay filed under Bos taurus [3], in the assay listed under Bos taurus [4], in the assay listed under Bos taurus [5] and in the assay listed under Bos taurus [6] was inactive.

As to `CN1C(C(=O)Nc2ccccn2)=C(O)c2ccccc2S1(=O)=O` [PIROXICAM], the result in the assay listed under Bos taurus [1], in the assay listed under Bos taurus [4] and in the assay filed under Bos taurus [6] was Active. Moreover, the Activity turned out to be 37% in [9] and 23% in assay [14].

Take `CC[N+](C)(C)CCCNC(=O)C1=C(O)c2ccccc2S(=O)(=O)N1C`: the result in the assay filed under Bos taurus [1], in the assay filed under Bos taurus [2], in the assay filed under Bos taurus [3], in the assay filed under Bos taurus [4], in the assay listed under Bos taurus [5] and in the assay filed under Bos taurus [6] was inactive.

For `CC[N+](C)(CC)CCCNC(=O)C1=C(O)c2ccccc2S(=O)(=O)N1C.[I-]`, the outcome in the assay filed under Bos taurus [1], in the assay filed under Bos taurus [4], in the assay listed under Bos taurus [24] and in the assay filed under Bos taurus [6] was Active. Further, in [20], the response, % of control at 10 µM amounted to 216%. The Activity was found to be 31% in assay [21], 130% in assay [23], 31% in [14] and 216% in assay [25]. For the same compound, the inhibition at 1 µM in [22] was found to be 130%.

For `CN1C(C(=O)NCCC[N+](C)(C)C)=C(O)c2ccccc2S1(=O)=O.[I-]`, the outcome in the assay filed under Bos taurus [8], in the assay filed under Bos taurus [10], in the assay listed under Bos taurus [11], in the assay filed under Bos taurus [12], in the assay filed under Bos taurus [15] and in the assay listed under Bos taurus [17] was inactive. Further, the result in the assay filed under Bos taurus [18] and in the assay listed under Bos taurus [19] was inactive. For the same compound, the inhibition at 0.1 µM in [26] came to 150%. Moreover, the Activity is recorded as 62% in [21]; 45% in assay [28]; 37% in assay [13]; 18% in [29]; 30% in assay [16]. For the same compound, the result in the assay listed under Bos taurus [27] and in the assay listed under Bos taurus [24] was Active. Further, the inhibition at 1 µM in assay [22] was determined as 63%.

One may read the inhibition as the relative decrease from the control value, in per cent.
